# Assay results taken from patent publication US11001600B2, “Disubstituted compounds for treatment of medical disorders” (Achillion Pharmaceuticals, Inc., priority 2015, dated 2021).
# pIC50: −log10 of the molar value.
# Target: Human Factor D (Homo sapiens (Human), UniProt P00746)
# Assay: Human Factor D assay
# Type: biochemical
# Details: not given
# Experimental: Example 8. Human Factor D Assay
# Human Factor D (purified from human serum, Complement Technology, Inc.) at 80 nM final concentration is incubated with test compound at various concentrations for 5 minutes at room temperature in 50 mM Tris, 1M NaCl, pH 7.5. A synthetic substrate Z-L-Lys-SBzl and DTNB (Ellman's reagent) are added to final concentrations of 100 μM each. Absorbance at 405 nm (A405) is recorded at 30 second intervals for 30 minutes using a microplate spectrophotometer. IC50 values are calculated by nonlinear regression of complement Factor D reaction rates as a function of test compound concentration.
# Sequence of Human Factor D (P00746 26-253): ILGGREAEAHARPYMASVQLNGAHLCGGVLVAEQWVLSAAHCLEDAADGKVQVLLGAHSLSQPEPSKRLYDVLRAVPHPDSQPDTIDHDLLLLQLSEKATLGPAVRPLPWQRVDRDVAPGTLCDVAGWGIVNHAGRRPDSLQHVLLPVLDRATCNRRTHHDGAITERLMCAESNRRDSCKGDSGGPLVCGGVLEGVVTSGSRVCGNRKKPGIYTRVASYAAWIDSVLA
row,Structure (SMILES),pIC50
1,"CC(C)(C)OC(=O)N=S(C)(=O)c1cccc(-c2cccc(NC(=O)[C@@H]3C[C@@H](F)CN3C(=O)Cn3nc(C(N)=O)c4ccccc43)c2F)c1 (stereo partly drawn) [Compound 49, tert-butyl ((3′-((2S,4R)-1-(2-(3-carbamoyl-1H-indazol-1-yl)acetyl)-4-fluoropyrrolidine-2-carboxamido)-2′-fluoro-[1,1′-biphenyl]-3-yl)(methyl)(oxo)-16-sulfaneylidene)-14-azanecarboxylate]",5.00 to 6.00

# Same assay, conditions: Factor D 80 nM, substrate Z-L-Lys-SBzl; Table 1; read-out: IC50
row,Structure (SMILES),pIC50
1,"CCOP(=O)(COc1cc2c(cc1-c1cnc(C)nc1)c(C(C)=O)cn2CC(=O)N1C[C@H](F)C[C@H]1C(=O)Nc1cccc(-c2ccccc2Cl)c1F)OCC [Compound 8, diethyl (3-acetyl-1-(2-((2S,4R)-2-(2′-chloro-2-fluorobiphenyl-3-ylcarbamoyl)-4-fluoropyrrolidin-1-yl)-2-oxoethyl)-5-(2-methylpyrimidin-5-yl)-1H-indol-6-yloxy)methylphosphonate]",> 6.00
2,"CC(=O)c1cn(CC(=O)N2C[C@H](F)C[C@H]2C(=O)Nc2cccc(-c3ccccc3Cl)c2F)c2cc(OCP(=O)(O)O)c(-c3cnc(C)nc3)cc12 [Compound 9, (3-acetyl-1-(2-((2S,4R)-2-(2′-chloro-2-fluorobiphenyl-3-ylcarbamoyl)-4-fluoropyrrolidin-1-yl)-2-oxoethyl)-5-(2-methylpyrimidin-5-yl)-1H-indol-6-yloxy)methylphos-phonic acid]",> 6.00
3,"CC(=O)c1cn(CC(=O)N2C[C@H](F)C[C@H]2C(=O)Nc2cccc(Br)n2)c2cc(OCP(=O)(O)O)c(-c3cnc(C)nc3)cc12 [Compound 13, (3-acetyl-1-(2-((2S,4R)-2-(6-bromopyridin-2-ylcarbamoyl)-4-fluoropyrrolidin-1-yl)-2-oxoethyl)-5-(2-methylpyrimidin-5-yl)-1H-indol-6-yloxy)methylphos-phonic acid]",> 6.00

# Same assay, conditions: Factor D 80 nM, substrate Z-L-Lys-SBzl; Table 2 (headed TABLE 1); read-out: IC50
row,Structure (SMILES),pIC50
1,"CC(=O)c1nn(CC(=O)N2C[C@H](F)C[C@H]2C(=O)Nc2cccc(Br)n2)c2cc(OCC(=O)N(C)C)c(-c3cnc(C)nc3)cc12 [Compound 26, (2S,4R)-1-(2-(3-acetyl-6-(2-(dimethylamino)-2-oxoethoxy)-5-(2-methylpyrimidin-5-yl)-1H-indazol-1-yl)acetyl)-N-(6-bromopyridin-2-yl)-4-fluoropyrrolidine-2-carboxamide]",> 6.00
2,"CC(=O)c1nn(CC(=O)N2C[C@H](F)C[C@H]2C(=O)Nc2cccc(Br)n2)c2cc(OCCOCc3ccccc3)c(-c3cnc(C)nc3)cc12 [Compound 33, (2S,4R)-1-(2-(3-acetyl-6-(2-(benzyloxy)ethoxy)-5-(2-methylpyrimidin-5-yl)-1H-indazol-1-yl)acetyl)-N-(6-bromopyridin-2-yl)-4-fluoropyrrolidine-2-carboxamide]",> 6.00
3,"COCOCCOc1cc2c(cc1-c1cnc(C)nc1)c(C(C)=O)nn2CC(=O)N1C[C@H](F)C[C@H]1C(=O)Nc1cccc(Br)n1 [Compound 39, (2S,4R)-1-(2-(3-acetyl-6-(2-(methoxymethoxy)ethoxy)-5-(2-methylpyrimidin-5-yl)-1H-indazol-1-yl)acetyl)-N-(6-bromopyridin-2-yl)-4-fluoropyrrolidine-2-carboxamide]",> 6.00
4,"CC(=O)c1nn(CC(=O)N2C[C@H](F)C[C@H]2C(=O)Nc2cccc(Br)n2)c2cc(OCCO)c(-c3cnc(C)nc3)cc12 [Compound 41, (2S,4R)-1-(2-(3-acetyl-6-(2-hydroxyethoxy)-5-(2-methylpyrimidin-5-yl)-1H-indazol-1-yl)acetyl)-N-(6-bromopyridin-2-yl)-4-fluoropyrrolidine-2-carboxamide]",> 6.00
5,"CC(=O)c1nn(CC(=O)N2C[C@H](F)C[C@H]2C(=O)Nc2cccc(Br)n2)c2cc(OCCN(C)C)c(-c3cnc(C)nc3)cc12 [Compound 44, (2S,4R)-1-(2-(3-acetyl-6-(2-(dimethylamino)ethoxy)-5-(2-methylpyrimidin-5-yl)-1H-indazol-1-yl)acetyl)-N-(6-bromopyridin-2-yl)-4-fluoropyrrolidine-2-carboxamide]",> 6.00
6,"CC(=O)c1nn(CC(=O)N2C[C@H](F)C[C@H]2C(=O)Nc2cccc(Br)n2)c2ccc(-c3cnc(S(C)(=N)=O)nc3)cc12 (stereo partly drawn) [Compound 46, (2S,4R)-1-(2-(3-acetyl-5-(2-(S-methylsulfonimidoyl)pyrimidin-5-yl)-1H-indazol-1-yl)acetyl)-N-(6-bromopyridin-2-yl)-4-fluoropyrrolidine-2-carboxamide]",> 6.00
7,"CC(=O)c1cn(CC(=O)N2C[C@H](F)C[C@H]2C(=O)Nc2cccc(Br)n2)c2ccc(S(C)(=O)=NC(=O)OC(C)(C)C)cc12 (stereo partly drawn) [Compound 47, tert-butyl ((3-acetyl-1-(2-((2S,4R)-2-((6-bromopyridin-2-yl)carbamoyl)-4-fluoropyrrolidin-1-yl)-2-oxoethyl)-1H-indol-5-yl)(methyl)(oxo)-16-sulfaneylidene)-14-azanecarboxylate]",> 6.00
8,"CC(=O)c1cn(CC(=O)N2C[C@H](F)C[C@H]2C(=O)Nc2cccc(Br)n2)c2ccc(S(C)(=N)=O)cc12 (stereo partly drawn) [Compound 48, (2S,4R)-1-(2-(3-acetyl-5-(S-methylsulfonimidoyl)-1H-indol-1-yl)acetyl)-N-(6-bromopyridin-2-yl)-4-fluoropyrrolidine-2-carboxamide]",> 6.00
